Values quoted from earlier work, collected in patent publication US4231928A, “Antibacterial agents” (priority 1979, dated 1980).

Test system: Pseudomonas aeruginosa
Conditions: prior art penicillins; cited from earlier work

For `CC1(C)S[C@@H]2[C@H](NC(=O)[C@H](C(=O)O)c3ccsc3)C(=O)N2[C@H]1C(=O)O` [ticarcillin], the “potency against Pseudomonas aeruginosa (in words)” value is listed as “only a relatively low potency”.
